In PubChem BioAssay AID2305 (GlaxoSmithKline (GSK), 2010) one finds IC50 data, which are given here for 32 molecules.

This assay deals with P. falciparum 3D7 growth, pLDH absorbance. Nature of the assay: P. falciparum 3D7 growth inhibition, dose response, strain 3D7 (AID 2305).

As a reminder, the IC50 is the concentration that gives 50% inhibition.

SMILES strings stand for the structures.

Molecule `c1cc(CN2CCN(CCN3CCOCC3)CC2)cc(-c2cccc(-c3nc4ccccc4[nH]3)c2)c1` displayed an IC50 of 240 nM. Molecule `O=C(Nc1ccccc1)N(Cc1ccc(-c2ccc(CNCc3ccc4c(c3)OCO4)cc2)cc1)C1CCN(Cc2ccccc2)CC1` showed an IC50 of 570 nM. The molecule `Fc1ccc2c(NN=Cc3ccccc3)ccnc2c1` gave an IC50 of 740 nM. The molecule `c1ccc(CN2CCC(NCc3ccccc3-c3cccc(CNC4CCCC4)c3)CC2)cc1` gave an IC50 of 720 nM. With `CC(C)NCC(O)COc1ccc(Cc2ccc(OCC(O)CNC(C)C)cc2)cc1` (configuration not stated) the figure was 650 nM. In turn, `c1ccc(-c2cccc(-c3ccccn3)n2)nc1` registered an IC50 of 900 nM.

The molecule `O=C(Nc1ccc(C(=O)N2CCN(CCN3CCN(c4cccc(C(F)(F)F)c4)CC3)CC2)cc1)c1ccc(C(F)(F)F)cc1` yielded a 50% inhibitory concentration (IC50) of 690 nM.

Molecule `O=[N+]([O-])c1ccc2nc(Nc3cccc(C(F)(F)F)c3)c(Nc3cccc(C(F)(F)F)c3)nc2c1` returned an IC50 of 480 nM. Molecule `O=S(=O)(c1cc2ccccc2s1)N(CCC(O)(C(F)(F)F)C(F)(F)F)Cc1cccc(O)c1` came in with an IC50 of 750 nM. With `FC(F)(F)c1ccc2nc(-c3ccc(-c4cccc(CN5CCC(CCN6CCCCC6)CC5)c4)cc3)[nH]c2c1` the figure was 150 nM. As for `COc1ccccc1-c1cccc(-c2cccc(NC(=O)c3ccc([N+](=O)[O-])o3)c2)n1`, the IC50 turned out to be 600 nM.

In the case of `COc1ccc(N2CCN(CCCCNC(=O)c3ccc(NC(=O)c4ccc(Cl)cc4)cc3)CC2)c(OC)c1`, the IC50 turned out to be 950 nM.

In turn, `CCOc1ccc(-c2nc(NC(=O)CS(=O)(=O)c3ccccc3)sc2C)cc1` displayed a half-maximal inhibitory concentration (IC50) of 510 nM. For the molecule `CCCCN1Cc2c(n(CC(=O)Nc3ccccc3)c3cc(-c4ccccc4)nn3c2=O)C1=O`, the IC50 stood at 810 nM. With `CC(C)(C)NCCN(Cc1ccc(-c2ccc(C(F)(F)F)cc2)cc1)C(=O)Cn1c(SCc2ccc(F)cc2)nc(=O)c2c1CCC2` the figure was 860 nM; with `COc1ccc(CNC(=O)NC2CCN(c3ccnc(Nc4ccc(OC)cc4)n3)C2)cc1` (configuration not stated), 1000 nM. Turning to `CCNc1cc(C(=O)N[C@@H](Cc2ccccc2)[C@H](O)CNC2(CC(C)C)CC2)cc(N2CCCCS2(=O)=O)c1`, the IC50 amounted to 1020 nM. Consider `Cc1cccc2[nH]c(-c3cccc(-c4cccc(NC(=O)N[C@@H]5C[C@H]5c5ccccc5)c4)c3)nc12`, for which the IC50 was determined as 710 nM. For `CC(C)(C)c1ccc(CN(C[C@@H](O)CNS(=O)(=O)c2cc(Cl)cc(Cl)c2)C(C)(C)C)cc1`, the IC50 came to 930 nM. Turning to `OCCOCCNCc1cccc(C#Cc2cc3ncnc(Nc4ccc(OCc5cccc(F)c5)c(Cl)c4)c3s2)n1`, the IC50 amounted to 780 nM. `COc1ccc(-c2nccc(NC(N)=NCc3ccccc3)n2)cc1`: the IC50 stood at 670 nM. With `CCCCCCCN1CC[C@@H](CCCc2ccnc3ccc(OCCN4CCNCC4)cc23)[C@@H](CC)C1` the figure was 770 nM. `CC[C@H]1CN2CC[C@@H]1C[C@H]2[C@H](O)c1cc(N2CCC(O)(c3ccc(Cl)cc3)CC2)nc2ccc(OC)cc12` showed an IC50 of 70 nM. As for `CN(C)CCCn1c(C(=O)OC(c2ccccc2)c2ccccc2)cc2cc(OCc3ccccc3)ccc21`, the IC50 worked out at 200 nM.

`CN1CCN(CCCN(Cc2csc(-c3ccc(CNCc4ccccc4)cc3)n2)S(=O)(=O)c2ccccc2Cl)CC1` returned an IC50 of 880 nM. With `CC(C)(C)c1ccc(NC(=O)c2cccc(CN3CCN(Cc4cccc(O)c4)CC3)c2)cc1` the figure was 1400 nM; with `C[C@H](NC(=O)c1c(CN2CCN(C(=O)C(C)(C)C)CC2)c(-c2cccs2)nc2ccccc12)C1CCCCC1`, 1180 nM; with `c1cncc(CCNCc2cccc(-c3csc(-c4nc5ccccc5[nH]4)c3)c2)c1`, 700 nM. For `O=C(NCCN1CCCc2ccccc21)C1CCN(c2nc(-c3ccc(Cl)cc3)no2)CC1`, the IC50 worked out at 690 nM.

Molecule `Cc1[nH]c2cc(Cl)ccc2c1C1=CCN(CCN2CCOc3c(Br)cccc3C2=O)CC1` came in with an IC50 of 870 nM. With `CCCCCCCc1c2c(C)c(C(=O)OCC)nc-2cc2n1CC(C)=C2C` the figure was 1140 nM; with `CCOc1ccc2c(NN=Cc3cc(OC)c(OC)cc3OC)cc(C)nc2c1`, 1000 nM.
